Assay results taken from patent US10551389B2, “Target binding molecules identified by kinetic target-guided synthesis” (UNIVERSITY OF SOUTH FLORIDA, priority 2013, dated 2020).

Assays:
Mcl-1 = Mcl-1 (Homo sapiens, UniProt Q07820); assay: Inhibition of Mcl-1 (disruption of Mcl-1/Bim interaction); assay type: binding; conditions: for inhibition at 25 µM / % Inhibition (25 μM) Mcl-1: compound at 25 μM; for inhibition at 50 µM / % Inhibition (50 μM) Mcl-1: compound at 50 μM
Description: (§1) In a subsequent study, a structurally diverse library of forty five thio acids and thirty eight sulfonyl azides (identified above) was screened in parallel against Mcl-1 and Bcl-XL using the above mentioned approach. Several potential hit combinations were identified (Table 3). All of these kinetic TGS hit compounds were synthesized (identified above and in Table 3). All the reactions were performed at 20-30 mg scale. The 9-fluorenylmethyl thioester was placed in a 2.0 mL vial and 3.5% DBU/dry DMF solution was added (per 1 μmol of thioester, 4.7 μL, of 3.5% DBU/dry DMF solution was added) and the reaction was stirred for one minute. Then the sulfonylazide (1 eq to thioester) was added to the reaction mixture and immediately bubbling was observed. After the reaction was completed (approximately one minute, monitored by LC-MS) water (200 μL) was added and the pH was adjusted to 7.0 using 1M HCl solution. The reaction mixture was extracted with DCM until there is no product in the aqueous layer (checked by TLC or LC-MS). The product was purified by flash chromatography. Testing of these acylsulfonamides has shown that the hit compounds disrupt the Bcl-XL/Bim or Mcl-1/Bim interaction (Table 3).

Bcl-XL = Bcl-XL (Homo sapiens, UniProt Q07817); assay: Inhibition of Bcl-XL (disruption of Bcl-XL/Bim interaction); assay type: binding; conditions: for inhibition at 25 µM / % Inhibition (25 μM) Bcl-XL: compound at 25 μM; for inhibition at 50 µM / % Inhibition (50 μM) Bcl-XL: compound at 50 μM
Description: as §1

Mcl-1, sequence (Q07820 whole entry, species assumed): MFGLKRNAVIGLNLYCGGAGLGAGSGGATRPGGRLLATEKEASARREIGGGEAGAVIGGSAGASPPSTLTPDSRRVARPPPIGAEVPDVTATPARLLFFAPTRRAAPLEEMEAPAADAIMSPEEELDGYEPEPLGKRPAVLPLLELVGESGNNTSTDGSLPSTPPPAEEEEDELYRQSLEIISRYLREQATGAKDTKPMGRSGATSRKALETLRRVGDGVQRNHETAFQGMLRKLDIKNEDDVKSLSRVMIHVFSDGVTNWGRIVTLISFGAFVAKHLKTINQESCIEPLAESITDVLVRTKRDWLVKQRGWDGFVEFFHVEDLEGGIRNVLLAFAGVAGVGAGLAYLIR
Bcl-XL, sequence (Q07817 whole entry, species assumed): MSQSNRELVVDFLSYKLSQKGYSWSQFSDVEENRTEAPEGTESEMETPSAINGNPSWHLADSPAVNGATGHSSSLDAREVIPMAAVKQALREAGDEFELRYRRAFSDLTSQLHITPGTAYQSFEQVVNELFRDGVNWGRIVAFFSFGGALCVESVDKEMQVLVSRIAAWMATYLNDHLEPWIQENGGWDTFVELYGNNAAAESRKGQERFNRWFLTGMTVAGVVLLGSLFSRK

Structure (SMILES)	inhibition at 25 µM (Mcl-1) [%]	inhibition at 50 µM (Mcl-1) [%]	inhibition at 25 µM (Bcl-XL) [%]	inhibition at 50 µM (Bcl-XL) [%]	IC50 (Mcl-1) [µM]	% Inhibition (25 μM) Mcl-1 (Mcl-1) [%]	% Inhibition (50 μM) Mcl-1 (Mcl-1) [%]	% Inhibition (25 μM) Bcl-XL (Bcl-XL) [%]	% Inhibition (50 μM) Bcl-XL (Bcl-XL) [%]	IC50 (Bcl-XL) [µM]
NS(=O)(=O)c1ccc(CN(CCSc2ccccc2)Cc2ccc(S(=O)(=O)NC(=O)CCCN3C(=O)C(c4ccc(F)cc4F)=C(c4ccc(F)cc4F)C3=O)cc2)cc1 [SZ10TA20]	27.8	7.6	3.8	< 2						
COc1cc2c(cc1OC)C(c1ccccc1)N(Cc1ccc(S(=O)(=O)NC(=O)c3ccc(C(c4c[nH]c5ccccc45)c4c[nH]c5ccccc45)cc3)cc1)CC2 (stereo not shown) [SZ8TA31]						<2.0	<2.0	<2.0	<2.0	
O=C(NS(=O)(=O)c1ccc(CN(CCSc2ccccc2)Cc2c(F)cccc2Cl)cc1)c1ccc(OC(F)(F)F)cc1 [SZ15TA8]					7.6	<2.0	96.5	3.4	12.4	47
O=C(NS(=O)(=O)c1ccc(CN(CCSc2ccccc2)Cc2c(F)cccc2Cl)cc1)c1ccc(-c2ccc(F)cc2)cc1 [SZ15TA14]						65.8	58.8	31.1	23.2	
[N-]=[N+]=NS(=O)(=O)c1ccc(CN(CCSc2ccccc2)Cc2ccc(S(=O)(=O)NC(=O)c3cccc4ccccc34)cc2)cc1 [SZ9TA7]				44.5	8.2					
[N-]=[N+]=NS(=O)(=O)c1ccc(CN(CCSc2ccccc2)Cc2ccc(S(=O)(=O)NC(=O)CCCN3C(=O)C(c4ccc(F)cc4F)=C(c4ccc(F)cc4F)C3=O)cc2)cc1 [SZ9TA20]	15.7	6.9	< 2	< 2						
O=C(Cn1c2ccccc2c2ccccc21)NS(=O)(=O)c1ccc(CN(CCSc2ccccc2)Cc2c(F)cccc2Cl)cc1 [SZ15TA15]						42.2	53.6	10.1	8.8	
COc1cc(OC)cc(C(=O)NS(=O)(=O)c2ccc(CN(CCSc3ccccc3)Cc3c(F)cccc3Cl)cc2)c1 [SZ15TA5]					13.4		>99.0		38.4	53
O=C(NS(=O)(=O)c1ccc(NCCSc2ccccc2)c([N+](=O)[O-])c1)c1ccc2c(ccn2Cc2ccc(C(F)(F)F)cc2C(F)(F)F)c1 [SZ4TA30]	68.7		41.2	42.6	26.1					> 50
Cn1cc(C(=O)C2CCCCC2)c2cc(C(=O)NS(=O)(=O)c3ccc(CN(CCSc4ccccc4)Cc4ccc(S(N)(=O)=O)cc4)cc3)ccc21 [SZ10TA40]						37.2	35.2	<2.0	<2.0	
NS(=O)(=O)c1ccc(CN(CCSc2ccccc2)Cc2ccc(S(=O)(=O)NC(=O)c3cccc(NCCc4ccccc4)c3)cc2)cc1 [SZ10TA44]						27.6	63.4	9.9	20.6	

Other lines, results leading:

inhibition at 25 µM (Mcl-1) [%]	inhibition at 50 µM (Mcl-1) [%]	inhibition at 25 µM (Bcl-XL) [%]	inhibition at 50 µM (Bcl-XL) [%]	IC50 (Mcl-1) [µM]	% Inhibition (25 μM) Mcl-1 (Mcl-1) [%]	% Inhibition (50 μM) Mcl-1 (Mcl-1) [%]	% Inhibition (25 μM) Bcl-XL (Bcl-XL) [%]	% Inhibition (50 μM) Bcl-XL (Bcl-XL) [%]	IC50 (Bcl-XL) [µM]	Structure (SMILES)
77.2		43	57.8	15.3						O=C(NS(=O)(=O)c1ccc(CN(CCSc2ccccc2)Cc2c(F)cccc2Cl)cc1)c1ccc(-c2ccccn2)cc1 [SZ15TA25]
					73.9	46.7	16.6	2.8		COc1cccc(CN(CCSc2ccccc2)Cc2ccc(S(=O)(=O)NC(=O)c3ccc(-c4ccc(F)cc4)cc3)cc2)c1 [SZ17TA14]
					7.2	12.4	<2.0	<2.0		COc1cccc(CN(CCSc2ccccc2)Cc2ccc(S(=O)(=O)NC(=O)CCCN3C(=O)C(c4ccc(F)cc4F)=C(c4ccc(F)cc4F)C3=O)cc2)c1 [SZ17TA20]
					25.8	58.5	7.5	<2.0		COc1cccc(CN(CCSc2ccccc2)Cc2ccc(S(=O)(=O)NC(=O)c3ccc4c(c3)c(C(=O)C3CCCCC3)cn4C)cc2)c1 [SZ17TA40]
84.3	88.6	40.2	77.7	16.8					31.3	O=C(NS(=O)(=O)c1ccc(CN(CCSc2ccccc2)Cc2ccc3c(c2)OCO3)cc1)c1ccc(CCc2ccccn2)cc1 [SZ31TA17]
					22.6	25.8	8.1	<2.0		O=C(NS(=O)(=O)CCN(CCSc1ccccc1)Cc1ccc2c(c1)OCO2)c1ccc(C(c2c[nH]c3ccccc23)c2c[nH]c3ccccc23)cc1 [SZ28TA31]
					14.9	36.5	<2.0	<2.0		O=C(NS(=O)(=O)c1ccc(CN(CCSc2ccccc2)Cc2ccc3c(c2)OCO3)cc1)c1cccc(NCCc2ccccc2)c1 [SZ31TA44]
					73.9	89.0	68.1	58.4		COc1cccc(CN(CCSc2ccccc2)Cc2ccc(S(=O)(=O)NC(=O)c3ccc(CCc4ccccn4)cc3)cc2)c1 [SZ17TA17]
					47.4	82.8	19.6	28.6		O=C(CC1Sc2ccccc2NC1=O)NS(=O)(=O)c1ccc(CN(CCSc2ccccc2)Cc2c(F)cccc2Cl)cc1 (stereo not shown) [SZ15TA34]
					62.7	34.5	6.8	<2.0		COc1cccc(CN(CCSc2ccccc2)Cc2ccc(S(=O)(=O)NC(=O)c3ccc4c(c3)c(C(=O)c3cccs3)cn4C)cc2)c1 [SZ17TA45]
					<2.0	<2.0	<2.0	<2.0		O=C(NS(=O)(=O)c1ccc(CN(CCSc2ccccc2)Cc2ccc3c(c2)OCO3)cc1)c1ccc(C(c2c[nH]c3ccccc23)c2c[nH]c3ccccc23)cc1 [SZ31TA31]
					<2.0	22.7	21.8	<2.0		O=C(NS(=O)(=O)c1ccc(-c2cc3ccccc3s2)cc1)c1ccc(CN2C(=O)C(c3ccc(F)cc3F)=C(c3ccc(F)cc3F)C2=O)cc1 [SZ37TA42]
					<2.0	<2.0	<2.0	<2.0		Cn1cc(C(=O)C2CCCCC2)c2cc(C(=O)NS(=O)(=O)c3ccc(CN(CCSc4ccccc4)Cc4ccc5c(c4)OCO5)cc3)ccc21 [SZ31TA40]
59.9		8.2	15.5	20						COc1ccc(Cc2ccc(C(=O)NS(=O)(=O)c3ccc(CN(CCSc4ccccc4)Cc4ccc5c(c4)OCO5)cc3)cc2)c(OC)c1OC [SZ31TA24]
